Counter-ions that a name gives are not always drawn.

25 molecules from patent publication US20220324865A1 (Bayer Aktiengesellschaft, priority 2018, published 2022) can be followed below.

This test has as its target T1, human EP3 receptor (Homo sapiens, UniProt P43115).
T1 construct: expressed in transfected cells; host or cells: CHO K1 (Chinese Hamster Ovary), stably co-transfected with Galpha16 and mitochondrial clytin
T1 sequence (P43115 1-390): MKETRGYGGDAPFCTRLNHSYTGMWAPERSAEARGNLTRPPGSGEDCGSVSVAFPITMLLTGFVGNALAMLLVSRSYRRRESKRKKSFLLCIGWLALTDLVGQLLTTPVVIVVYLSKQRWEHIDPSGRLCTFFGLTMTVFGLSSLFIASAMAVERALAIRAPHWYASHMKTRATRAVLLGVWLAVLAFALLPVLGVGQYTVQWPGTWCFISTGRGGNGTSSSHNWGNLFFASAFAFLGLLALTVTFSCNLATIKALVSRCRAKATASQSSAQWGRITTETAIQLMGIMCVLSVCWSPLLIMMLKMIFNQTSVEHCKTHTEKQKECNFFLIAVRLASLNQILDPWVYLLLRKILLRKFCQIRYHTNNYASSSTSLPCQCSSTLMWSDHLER
The test can be described thus: Cellular in vitro assay for determining EP3 receptor activity (human EP3 cell line, sulprostone-stimulated calcium luminescence). It counts as cell-based. The conditions noted are these: CHO cells expressing human EP3 and mitochondrial Clytin; antagonist mode, sulprostone at EC50; read-out: EP3 CHO mtCLY ANTAG IC50. The procedure, abridged:
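CHO K1 cells stably expressing human EP3 with Gα16 and mitochondrial Clytin, loaded overnight with coelenterazine. Compounds added 10 min before sulprostone at its EC50; antagonism read immediately as reduced calcium-driven luminescence, quadruplicate points.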
For orientation: IC50 means the concentration that inhibits the measured activity by half. Take `O=C(N[C@H](CN1CCOCC1)c1ccccc1)c1cc2c(=O)[nH]c(-c3ccc4ccccc4c3)cn2n1` [Example 1-7, N-[(1S)-2-(Morpholin-4-yl)-1-phenylethyl]-6-(naphthalen-2-yl)-4-oxo-4,5-dihydropyrazolo[1,5-a]-pyrazine-2-carboxamide formic acid salt]: the IC50 amounted to 1.7 nM.
Then `CC(C)c1c(C(=O)N[C@H](C)c2ccc(F)cc2)nn2cc(-c3ccc4ccccc4c3)[nH]c(=O)c12` [Example 1-8, N-[(1R)-1-(4-Fluorophenyl)ethyl]-6-(naphthalen-2-yl)-4-oxo-3-(propan-2-yl)-4,5-dihydropyrazolo-[1,5-a]pyrazine-2-carboxamide], with 1.36 nM; and `CC(C)c1c(C(=O)N[C@@H](C)c2ccc(F)cc2)nn2cc(-c3ccc4ccccc4c3)[nH]c(=O)c12` [Example 1-9, N-[(1S)-1-(4-Fluorophenyl)ethyl]-6-(naphthalen-2-yl)-4-oxo-3-(propan-2-yl)-4,5-dihydropyrazolo-[1,5-a]pyrazine-2-carboxamide], with 2.37 nM; and `COc1ccc(CNC(=O)c2nn3cc(-c4ccc5ccccc5c4)[nH]c(=O)c3c2C(C)C)cc1OC` [Example 1-10, N-(3,4-Dimethoxybenzyl)-6-(naphthalen-2-yl)-4-oxo-3-(propan-2-yl)-4,5-dihydropyrazolo[1,5-a]-pyrazine-2-carboxamide], with 0.58 nM.
Then `COC[C@@H](NC(=O)c1cc2c(=O)[nH]c(-c3ccc(C)c(C)c3)cn2n1)c1ccccc1` [Example 1-13, 6-(3,4-Dimethylphenyl)-N-[(1S)-2-methoxy-1-phenylethyl]-4-oxo-4,5-dihydropyrazolo[1,5-a]-pyrazine-2-carboxamide], with 1.15 nM; and `Cc1ccc(-c2cn3nc(C(=O)N[C@H](CCO)c4ccccc4)cc3c(=O)[nH]2)cc1C` [Example 1-14, 6-(3,4-Dimethylphenyl)-N-[(1R)-3-hydroxy-1-phenylpropyl]-4-oxo-4,5-dihydropyrazolo[1,5-a]-pyrazine-2-carboxamide], with 0.14 nM; and `Cc1ccc(-c2cn3nc(C(=O)N[C@H](C)c4ccc(C(F)(F)F)cc4)cc3c(=O)[nH]2)cc1C` [Example 1-15, 6-(3,4-Dimethylphenyl)-4-oxo-N-{(1R)-1-[4-(trifluoromethyl)phenyl]ethyl}-4,5-dihydropyrazolo-[1,5-a]pyrazine-2-carboxamide], with 1.7 nM.
As for `COc1ccc(CNC(=O)c2cc3c(=O)[nH]c(-c4ccc5c(c4)N(C)CCO5)cn3n2)cc1OC` [Example 1-16, N-(3,4-Dimethoxybenzyl)-6-(4-methyl-3,4-dihydro-2H-1,4-benzoxazin-6-yl)-4-oxo-4,5-dihydropyrazolo[1,5-a]pyrazine-2-carboxamide], the figure is 2 nM.
On to `O=C(N[C@H](CCO)c1ccc(F)cc1)c1nn2cc(-c3ccc4ccccc4c3)[nH]c(=O)c2c1C(F)(F)F` [Example 1-17, N-[(1R)-1-(4-Fluorophenyl)-3-hydroxpropyl]-6-(naphthalen-2-yl)-4-oxo-3-(trifluoromethyl)-4,5-dihydropyrazolo[1,5-a]pyrazine-2-carboxamide], for which the IC50 stood at 0.575 nM.
Take `CC(C)(O)[C@@H](NC(=O)c1nn2cc(-c3ccc4ccccc4c3)[nH]c(=O)c2c1C(F)(F)F)c1ccccc1` [Example 1-18, N-[(1S)-2-Hydroxy-2-methyl-1-phenylpropyl]-6-(naphthalen-2-yl)-4-oxo-3-(trifluoromethyl)-4,5-dihydropyrazolo[1,5-a]pyrazine-2-carboxamide]: the IC50 is 1.04 nM.
Then `CC(C)(O)[C@@H](NC(=O)c1nn2cc(-c3ccc4ccccc4c3)[nH]c(=O)c2c1C(F)(F)F)c1ccc(F)cc1` [Example 1-19, N-[(1S)-1-(4-Fluorophenyl)-2-hydroxy-2-methylpropyl]-6-(naphthalen-2-yl)-4-oxo-3-(trifluoromethyl)-4,5-dihydropyrazolo[1,5-a]pyrazine-2-carboxamide], with 0.705 nM; and `COCc1c(C(=O)N[C@H](C)c2ccc(F)cc2)nn2cc(-c3ccc4ccccc4c3)[nH]c(=O)c12` [Example 1-20, N-[(1R)-1-(4-Fluorophenyl)ethyl]-3-(methoxymethyl)-6-(naphthalen-2-yl)-4-oxo-4,5-dihydropyrazolo[1,5-a]pyrazine-2-carboxamide], with 1.09 nM.
Turning to `COCc1c(C(=O)NC2(c3ccc(F)cc3)CN(C)C2)nn2cc(-c3ccc4ccccc4c3)[nH]c(=O)c12` [Example 1-21, N-[3-(4-Fluorophenyl)-1-methylazetidin-3-yl]-3-(methoxymethyl)-6-(naphthalen-2-yl)-4-oxo-4,5-dihydropyrazolo[1,5-a]pyrazine-2-carboxamide], the 50% inhibitory concentration (IC50) was 1.25 nM.
As for `COCc1c(C(=O)N[C@H](C)c2ccc(OC)nc2)nn2cc(-c3ccc4ccccc4c3)[nH]c(=O)c12` [Example 1-22, 3-(Methoxymethyl)-N-[(1R)-1-(6-methoxypyridin-3-yl)ethyl]-6-(naphthalen-2-yl)-4-oxo-4,5-dihydropyrazolo[1,5-a]pyrazine-2-carboxamide], the figure is 0.37 nM.
As for `Cc1c(C(=O)N[C@H](C)c2ccc(F)cc2)nn2c(C)c(-c3ccc4ccccc4c3)[nH]c(=O)c12` [Example 1-23, N-[(1R)-1-(4-Fluorophenyl)ethyl]-3,7-dimethyl-6-(naphthalen-2-yl)-4-oxo-4,5-dihydropyrazolo-[1,5-a]pyrazine-2-carboxamide], the figure is 5.55 nM; as for `O=C(N[C@H](CCO)c1ccc(F)cc1)c1cc2c(=O)[nH]c(-c3ccc4c(c3)COCC4)cn2n1` [Example 1-24, 6-(3,4-Dihydro-1H-isochromen-7-yl)-N-[(1R)-1-(4-fluorophenyl)-3-hydroxypropyl]-4-oxo-4,5-dihydropyrazolo[1,5-a]pyrazine-2-carboxamide], 7.3 nM; as for `Cc1cccc2ncc(-c3cn4nc(C(=O)NC5(c6ccc(F)cc6)CN(C)C5)c(C(C)C)c4c(=O)[nH]3)cc12` [Example 1-25, N-[3-(4-Fluorophenyl)-1-methylazetidin-3-yl]-6-(5-methylquinolin-3-yl)-4-oxo-3-(propan-2-yl)-4,5-dihydropyrazolo[1,5-a]pyrazine-2-carboxamide], 5.8 nM.
As for `CCN(CCO)CC(NC(=O)c1nn2cc(-c3ccc4ccccc4c3)[nH]c(=O)c2c1C1CC1)c1ccccc1` (stereo not shown) [Example 1-26, 3-Cyclopropyl-N-[2-[ethyl(2-hydroxyethyl)amino]-1-phenylethyl]-6-(2-naphthyl)-4-oxo-5H-pyrazolo[1,5-a]pyrazine-2-carboxamide], the figure is 1.4 nM.
On to `CCN(CCO)CC(NC(=O)c1cc2c(=O)[nH]c(-c3ccc4ccccc4c3)cn2n1)c1ccccc1` (stereo not shown) [Example 1-27, N-[2-[Ethyl(2-hydroxyethyl)amino]-1-phenylethyl]-6-(2-naphthyl)-4-oxo-5H-pyrazolo[1,5-a]-pyrazine-2-carboxamide], for which the IC50 was 2.25 nM.
Then `CCN(CCO)CC(NC(=O)c1nn2cc(-c3ccc4ccccc4c3)[nH]c(=O)c2c1C(F)(F)F)c1ccccc1` (stereo not shown) [Example 1-28, N-[2-[Ethyl(2-hydroxyethyl)amino]-1-phenylethyl]-6-(2-naphthyl)-4-oxo-3-(trifluoromethyl)-5H-pyrazolo[1,5-a]pyrazine-2-carboxamide], with 0.855 nM; and `CC(C)(O)[C@@H](NC(=O)c1cc2c(=O)[nH]c(-c3ccc4ccccc4c3)cn2n1)c1ccc(F)cc1` [Example 1-29, N-[(1S)-1-(4-Fluorophenyl)-2-hydroxy-2-methylpropyl]-6-(naphthalen-2-yl)-4-oxo-4,5-dihydropyrazolo[1,5-a]pyrazine-2-carboxamide], with 1.55 nM; and `CC(NC(=O)c1nn2cc(-c3ccc4ccccc4c3)[nH]c(=O)c2c1C(F)(F)F)c1ccc(OCC(F)(F)F)cn1` (stereo not shown) [Example 1-30, 6-(2-Naphthyl)-4-oxo-N-[1-[5-(2,2,2-trifluoroethoxy)-2-pyridyl]ethyl]-3-(trifluoromethyl)-5H-pyrazolo[1,5-a]pyrazine-2-carboxamide trifluoroacetic acid salt], with 4.05 nM.
As for `CN1CC(NC(=O)c2nn3cc(-c4ccc5ccccc5c4)[nH]c(=O)c3c2C(F)(F)F)(c2ccc(F)cc2)C1` [Example 1-31, N-[3-(4-Fluorophenyl)-1-methylazetidin-3-yl]-6-(naphthalen-2-yl)-4-oxo-3-(trifluoromethyl)-5H-pyrazolo[1,5-a]pyrazine-2-carboxamide trifluoroacetic acid salt], the figure is 1.84 nM.
As for `CN1CC(NC(=O)c2nn3cc(-c4ccc5ccccc5c4)[nH]c(=O)c3c2C(F)(F)F)(c2ccc(F)cc2)C1` [Example 1-32, N-[3-(4-Fluorophenyl)-1-methylazetidin-3-yl]-6-(naphthalen-2-yl)-4-oxo-3-(trifluoromethyl)-4,5-dihydropyrazolo[1,5-a]pyrazine-2-carboxamide], the figure is 1.6 nM.
For the molecule `Cc1c(C(=O)NC2(c3ccc(F)cc3)CN(C)C2)nn2cc(-c3ccc4ccccc4c3)[nH]c(=O)c12` [Example 1-34, N-[3-(4-Fluorophenyl)-1-methylazetidin-3-yl]-3-methyl-6-(naphthalen-2-yl)-4-oxo-4,5-dihydropyrazolo[1,5-a]pyrazine-2-carboxamide formic acid salt], the IC50 turned out to be 4.18 nM.
